Measurements as given in patent US4145554A, “3-Nitropyrazole derivatives” (Eli Lilly and Company, priority 1977, dated 1979).
Values after ≈ are worked out from the molar mass of the structure shown. Where two headings read alike, the source gives them in different places.

What was measured:
[1] = tested on: Salmonella dublin; assay: in vitro tube dilution test (MIC); format: cell-based; conditions: Salmonella enterica
Source text: (§1) The other preferred compounds of our invention have also been thoroughly tested in the in vitro tube dilution test.
(§2) Other compounds of our invention have also been tested in the tube dilution test and shown to have in vitro activity against a number of microorganisms. The table below reports tests of a number of exemplary compounds against exemplary microorganisms. The compounds are identified by their numbers in the listing above. The data are reported as the MIC in micrograms per milliliter against the named exemplary microorganisms.

[2] = tested on: Staphylococcus aureus sp. 1130; assay: in vitro tube dilution test (MIC); format: cell-based
Source text: as §1, §2

[3] = tested on: Vibrio coli 3811; assay: in vitro tube dilution test (MIC); format: cell-based; conditions: Campylobacter coli
Source text: as §1, §2

[4] = tested on: Pasteurella multocida; assay: in vitro tube dilution test (MIC); format: cell-based
Source text: (§3) Our compound, 1-(2-hydroxyethyl)-3-nitro-4-pyrazolecarboxamide, has been extensively tested in vitro to determine the range of microorganisms against which it is active. The table of data below reports the minimum inhibitory concentration (MIC) at which the compound is effective in controlling a variety of microorganisms in a standard tube dilution test system. The MIC is reported as micrograms of compound per milliliter.
as §1, §2

[5] = tested on: Streptococcus sp. 80; assay: in vitro tube dilution test (MIC); format: cell-based
Source text: as §2

[6] = tested on: Escherichia coli; assay: in vitro tube dilution test (MIC); format: cell-based
Source text: as §3, §2

[7] = tested on: Mycoplasma gallisepticum; assay: in vitro tube dilution test (MIC); format: cell-based; conditions: Mycoplasmoides gallisepticum
Source text: as §3, §2

[8] = tested on: Salmonella typhimurium; assay: Salmonellosis in chickens, single injection to day-old chicks; format: in vivo; conditions: Salmonella enterica, TYPHIMURIUM, 168 h; single injection of 60 mg./kg.; seven days; read-out: Survival (converted)
Method: A number of our 3-nitropyrazoles have been tested against an induced infection of Salmonella typhimurium in day-old chicks. The test was conducted by administering a single injection of 60 mg./kg. of the compounds to each of five chicks. The following day, the chicks were challenged by the subcutaneous injection of a dispersion of S. typhimurium organisms sufficient to kill most or all of the untreated control chicks.
Some of the compounds were tested more than once, in which instances the data are reported as the total survivors from the multiple treatment groups. Untreated, challenged control groups of chicks were tested together with each batch of groups of chicks to which test compounds were administered. Since the mortality of the untreated control chicks varied somewhat from one group of tests to another, results of the untreated control groups are reported below with each test.

[9] = Salmonella dublin, tube dilution, read-out: MIC
[10] = Staphylococcus aureus sp. 1130, tube dilution, read-out: MIC
[11] = Vibrio coli 3811, tube dilution, read-out: MIC
[12] = Streptococcus sp. 80, tube dilution, read-out: MIC
[13] = Mycoplasma gallisepticum, tube dilution, read-out: MIC

Row | Structure (SMILES) | MIC [1, 9] [mg/L] | MIC [2, 10] [mg/L] | MIC [3, 11] [mg/L] | MIC ([4]; tube dilution, read-out: MIC) [mg/L] | MIC [5, 12] [mg/L] | MIC ([6]; tube dilution, read-out: MIC) [mg/L] | MIC [7, 13] [mg/L] | MIC [1] [mg/L] | MIC ([2]; Staphylococcus aureus, SP.1130) [mg/L] | MIC [3]; 3811 [mg/L] | MIC [4] [mg/L] | MIC ([5]; Streptococcus, SP.80) [mg/L] | MIC [6] [mg/L] | MIC [7] [mg/L] | responders at 60 mg/kg [8] [%]
1 | C#CCn1cc(C#N)c([N+](=O)[O-])n1 [Compound 4, 1-propargyl-3-nitro-4-pyrazolecarbonitrile] | 50 (≈ 284 µM) | > 50 | 6.25 (≈ 35.5 µM) | 12.5 (≈ 71 µM) | > 50 | 50 (≈ 284 µM) | 50 (≈ 284 µM) |  |  |  |  |  |  |  | 
2 | NC(=O)c1cn(-c2ccc([N+](=O)[O-])cc2)nc1[N+](=O)[O-] [Compound 5, 3-nitro-1-(4-nitrophenyl)-4-pyrazolecarboxamide] |  |  |  |  |  |  |  | > 50 | 3.12 (≈ 11.3 µM) | 6.25 (≈ 22.5 µM) | 3.12 (≈ 11.3 µM) | > 50 | > 50 | 25 (≈ 90.2 µM) | 
3 | NC(=O)c1cn(CCN2C(=O)c3ccccc3C2=O)nc1[N+](=O)[O-] [Compound 10, 1-(2-phthalimidoethyl)-3-nitro-4-pyrazolecarboxamide] | > 50 | 6.25 (≈ 19 µM) | 50 (≈ 152 µM) | 25 (≈ 75.9 µM) | 6.25 (≈ 19 µM) | 50 (≈ 152 µM) | 50 (≈ 152 µM) |  |  |  |  |  |  |  | 
4 | Cn1cc(C#N)c([N+](=O)[O-])n1 [Compound 30, 1-methyl-3-nitro-4-pyrazolecarbonitrile] | 100 (≈ 657 µM) | 100 (≈ 657 µM) | 100 (≈ 657 µM) |  | 100 (≈ 657 µM) | 100 (≈ 657 µM) | 50 (≈ 329 µM) |  |  |  |  |  |  |  | 
5 | N#Cc1cn(CC2CO2)nc1[N+](=O)[O-] (stereo not drawn) [Compound 31, 1-(2,3-epoxypropyl)-3-nitro-4-pyrazolecarbonitrile] | 50 (≈ 258 µM) | 50 (≈ 258 µM) | 12.5 (≈ 64.4 µM) |  | 50 (≈ 258 µM) | 50 (≈ 258 µM) | 50 (≈ 258 µM) |  |  |  |  |  |  |  | 
6 | CCCn1cc(C(N)=O)c([N+](=O)[O-])n1 [Compound 38, 3-nitro-1-propyl-4-pyrazolecarboxamide] |  |  |  |  |  |  |  |  |  |  |  |  |  |  | 80
7 | CCCCCCCCCn1cc(C(N)=O)c([N+](=O)[O-])n1 [Compound 48, 3-nitro-1-nonyl-4-pyrazolecarboxamide] | > 50 | 25 (≈ 88.5 µM) | 50 (≈ 177 µM) | 0.39 (≈ 1.38 µM) | > 50 | > 50 | 50 (≈ 177 µM) |  |  |  |  |  |  |  | 
8 | NC(=O)c1c[nH]nc1[N+](=O)[O-] [Compound 60, 3(5)-nitro-4-pyrazolecarboxamide] | > 50 | > 50 | > 50 | 25 (≈ 160 µM) | > 50 | > 50 | 50 (≈ 320 µM) |  |  |  |  |  |  |  | 
9 | CCOC(Cn1cc(C#N)c([N+](=O)[O-])n1)OCC [Compound 67, 1-(2,2-diethoxyethyl)-3-nitro-4-pyrazolecarbonitrile] | 50 (≈ 197 µM) | 50 (≈ 197 µM) | 50 (≈ 197 µM) | 25 (≈ 98.3 µM) | 50 (≈ 197 µM) | 50 (≈ 197 µM) | 50 (≈ 197 µM) |  |  |  |  |  |  |  | 
10 | N#Cc1cn(-c2ncc([N+](=O)[O-])s2)nc1[N+](=O)[O-] [Compound 68, 3-nitro-1-(5-nitro-2-thiazolyl)-4-pyrazolecarbonitrile] |  |  |  |  |  |  |  | 50 (≈ 188 µM) | 25 (≈ 93.9 µM) | 12.5 (≈ 47 µM) | 12.5 (≈ 47 µM) | 50 (≈ 188 µM) | 50 (≈ 188 µM) | 25 (≈ 93.9 µM) | 
11 | CC(O)Cn1cc(C(N)=O)c([N+](=O)[O-])n1 (stereo not drawn) [Compound 69, 1-(2-hydroxypropyl)-3-nitro-4-pyrazolecarboxamide] |  |  |  |  |  |  |  |  |  |  |  |  |  |  | 100
12 | N#Cc1cn(Cc2ccccc2)nc1[N+](=O)[O-] [Compound 70, 1-benzyl-3-nitro-4-pyrazolecarbonitrile] | 100 (≈ 438 µM) | 100 (≈ 438 µM) | 12.5 (≈ 54.8 µM) |  | 100 (≈ 438 µM) | 100 (≈ 438 µM) | > 50 |  |  |  |  |  |  |  | 
13 | CCSCCn1cc(C#N)c([N+](=O)[O-])n1 [Compound 72, 1-(2-ethylthioethyl)-3-nitro-4-pyrazolecarbonitrile] | > 50 | > 50 | > 50 | > 50 | > 50 | > 50 | > 50 |  |  |  |  |  |  |  | 
14 | N#CCCn1cc(C#N)c([N+](=O)[O-])n1 [Compound 73, 4-cyano-3-nitro-1-pyrazolepropionitrile] | 50 (≈ 262 µM) | 50 (≈ 262 µM) | 25 (≈ 131 µM) | 12.5 (≈ 65.4 µM) | 50 (≈ 262 µM) | 50 (≈ 262 µM) | 50 (≈ 262 µM) |  |  |  |  |  |  |  | 
15 | Cn1cc(C(=O)NN=Cc2ccc([N+](=O)[O-])o2)c([N+](=O)[O-])n1 [Compound 74, 1-methyl-3-nitro-4-pyrazolecarboxylic acid, 5-nitrofurfurylidene hydrazide] |  |  |  |  |  |  |  | 12.5 (≈ 40.6 µM) | 1.56 (≈ 5.06 µM) | 0.39 (≈ 1.27 µM) |  | 50 (≈ 162 µM) | 6.25 (≈ 20.3 µM) | 0.78 (≈ 2.53 µM) | 
16 | Cc1ccc(C(=O)OCCn2cc(C(N)=O)c([N+](=O)[O-])n2)cc1 [Compound 76, [2-(4-carbamoyl-3-nitropyrazol-1-yl)ethyl] p-toluate] |  |  |  |  |  |  |  |  |  |  |  |  |  |  | 100
17 | CCS(=O)(=O)CCn1cc(C#N)c([N+](=O)[O-])n1 [Compound 86, 1-(2-ethylsulfonyethyl)-3-nitro-4-pyrazolecarbonitrile] | > 50 | > 50 | 25 (≈ 96.8 µM) | > 50 | > 50 | > 50 | 50 (≈ 194 µM) |  |  |  |  |  |  |  | 
18 | N#Cc1cn(CCBr)nc1[N+](=O)[O-] [Compound 91, 1-(2-bromoethyl)-3-nitro-4-pyrazolecarbonitrile] | > 50 | > 50 | 12.5 (≈ 51 µM) | 12.5 (≈ 51 µM) | 50 (≈ 204 µM) | > 50 | > 50 |  |  |  |  |  |  |  | 
19 | N#Cc1cn(-c2ccc([N+](=O)[O-])cc2)nc1[N+](=O)[O-] [Compound 92, 3-nitro-1-(4-nitrophenyl)-4-pyrazolecarbonitrile] |  |  |  |  |  |  |  | > 50 | 6.25 (≈ 24.1 µM) | 6.25 (≈ 24.1 µM) | 0.78 (≈ 3.01 µM) | 50 (≈ 193 µM) | > 50 | 12.5 (≈ 48.2 µM) | 
20 | O=C(NN=Cc1ccc([N+](=O)[O-])o1)c1cn(CCO)nc1[N+](=O)[O-] [Compound 94, 1-(2-hydroxyethyl)-3-nitropyrazole-4-carboxylic acid, 5-nitrofurfurylidene hydrazide] |  |  |  |  |  |  |  | 25 (≈ 73.9 µM) | 6.25 (≈ 18.5 µM) | < 1.56 | < 1.56 | 25 (≈ 73.9 µM) | 25 (≈ 73.9 µM) | 6.25 (≈ 18.5 µM) | 
21 | NC(=O)c1cn(-c2ncc([N+](=O)[O-])s2)nc1[N+](=O)[O-] [Compound 95, 3-nitro-1-(5-nitro-2-thiazolyl)pyrazole-4-carboxamide] |  |  |  |  |  |  |  | 25 (≈ 88 µM) | < 1.56 | < 1.56 | 3.12 (≈ 11 µM) | 50 (≈ 176 µM) | > 50 | 12.5 (≈ 44 µM) | 
22 | CSCCn1cc(C(N)=O)c([N+](=O)[O-])n1 [Compound 97, 1-[2-(methylthio)ethyl]-3-nitropyrazole-4-carboxamide] | > 50 | > 50 | 12.5 (≈ 54.3 µM) | 25 (≈ 109 µM) | > 50 | > 50 | 25 (≈ 109 µM) |  |  |  |  |  |  |  | 
